Test results taken from patent US11142522B2, “Compounds, compositions and methods for cancer treatment” (THE BROAD INSTITUTE, INC., priority 2017, dated 2021).
Values joined by “and” are separate entries in the source; they are usually repeats but may differ in a detail not shown here. Equal entries are not always repeated. Marks after values point to notes of the source that are not given here.

How the values were obtained:
HeLa = test: Cell proliferation measurement (Cell Titer Glo, 72 h); type: cell-based; conditions: Homo sapiens, Cervical Cancer
Procedure: (§1) The antiproliferative activity of the compounds of the general formula (I) was examined in vitro in human cancer cells. For this purpose, 1000 cells, including HuT78 cells, 500 HeLa cells, or 500 A2058 cells, were plated in 384-well plates with appropriate growth medium and incubated at 37° C. overnight. After 24 h, the cells on the test plate were treated with the compounds of the general formula (I) as and incubated at 37° C. for 72 h. The compounds were added to the cells by means of an HP D300 digital dispenser in a 10 (or more)—step dilution series. As control, the cells were treated with vehicle (DMSO at 0.3% final concentration). After 72 h, the cells were treated with 20 µl/well of 50% CTG solution in PBS (Promega Cell Titer Glo (catalogue # G755B and G756B)) and incubated at room temperature for 10 min, and luminescence was measured by means of a VICTOR V (Perkin Elmer), in order to determine cell viability at the end of treatment. The percentage effect on cell growth and the IC50 derived therefrom were determined for each test substance using the values from untreated wells (=percent viability). The IC50 values were calculated using a 4-parameter fit.

IGR37 = test: as above; type: cell-based; conditions: Homo sapiens, IGR-37, IGR37, Melanoma
Procedure: as §1

SKMEL3 = test: as above; type: cell-based; conditions: Homo sapiens, SK-MEL3, SKMEL3, Melanoma
Procedure: as §1

A549 = test: as above; type: cell-based; conditions: Homo sapiens, A549, Lung adenocarcinoma, printed as (inactive)
Procedure: as §1

PDE3A-CRISPR A2058 cells = test: Dose response in A2058 cells with CRISPR knockout of PDE3A; type: cell-based, human
Procedure: as §1
CRISPR target sites were identified using the MIT CRISPR Design Tool (online MIT CRISPR design portal). For cloning of sgRNAs, forward and reverse oligonucleotides (oligos) were annealed, phosphorylated and ligated into BsmBI-digested pXPR_BRD001. Oligo sequences are as follows:
To produce lentivirus, 293T cells were co-transfected with pXPR_BRD001, psPAX2 and pMD2.G using calcium phosphate. Infected A2058 and HeLa cells were selected with 2 μg/ml of puromycin.

[1] = In vitro metabolic stability in cryopreserved human hepatocytes; type: in vitro ADME; conditions: 1 μM test compound
Procedure: Cryopreserved Hepatocytes (e.g. purchased from Celsis InVitroTechnologies) were briefly thawed, washed with 45 mL pre-warmed in in vitro GRO HT medium and centrifuged for 5 min at 50×g. The cell pellet was resuspended in 5 ml of Krebs-Henseleit […] (KHB). Cell viability was determined by trypan blue exclusion.
For the metabolic stability assay liver cells were distributed in WME containing 5% FCS to glass vials at a density of 1.0×10^6 vital cells/ml. The test compound was added to a final concentration of 1 μM. During incubation, the hepatocyte suspensions were continuously shaken at 580 rpm and aliquots were taken at 2, 8, 16, 30, 45 and 90 min, to which equal volumes of cold methanol were immediately added. Samples were frozen at −20° C. over night, after subsequently centrifuged for 15 minutes at 3000 rpm and the supernatant was analyzed with an Agilent 1290 HPLC-system with LCMS/MS detection.
The half-life of a test compound was determined from the concentration-time plot. From the half-life the intrinsic clearances were calculated. Together with the additional parameters liver blood flow, amount of liver cells in vivo and in vitro. The hepatic in vivo blood clearance (CL) and the maximal oral bioavailability (Fmax) was calculated.

[2] = test system: xenograft models of human tumors; test: Murine xenotransplantation models of human cancer (overall); type: in vivo, mice; conditions: monotherapy, p.o., different xenograft models
Procedure: (§2) The anti-tumor activity of Compound 1 was examined in murine xenotransplantation models of human cancer. For this purpose, mice were implanted subcutaneously with tumor cells. At a mean tumor size of 20-40 mm^2 animals were randomized into treatment and control groups (at least n=10 animals/group) and treatment started with vehicle only or Compound 1 (formulation: 90% PEG400/10% Ethanol; application route: per os (“p.o.”), orally). The oral application volume was 10 ml/kg. In the case of twice daily treatments, the time interval between two applications per day was 6-7h. The tumor size and the body weight were determined at least weekly. The tumor area was detected by means of an electronic caliper [length (mm)×width (mm)]. The experiment was ended when the tumors of the vehicle control reached the pre-determined ethical endpoint based on German and European animal welfare regulations. In vivo anti-tumor efficacy is presented as T/C ratio at study end (Treatment/Control; mean tumor area or weight of treatment group/mean tumor area or weight of control group) in Table 7. A compound having a T/C below 0.5 is defined as active (i.e., effective). Statistical analysis was assessed using SigmaStat software. A one-way analysis of variance was performed and differences to the control were compared by a pair-wise comparison procedure (Dunn's method).

[3] = In vivo pharmacokinetics in dogs; conditions: female, Beagle, dog, plasma, iv, after i.v., read-out: clearance in dogs (CLp) (converted)
Procedure: For in vivo pharmacokinetic experiments test compounds were administered to non-rodents (e.g. female Beagle dogs) intravenously at doses of 0.1 to 1 mg/kg and intragastral at doses of 0.3 to 3 mg/kg formulated as solutions using solubilizers such as PEG400 in well-tolerated amounts and are usually given as short term infusion (15 min).
Blood samples were taken e.g. at 2 min, 8 min, 15 min, 30 min, 45 min, 1 h, 2 h, 4 h, 6 h, 8 h and 24 h after dosing from the vena saphena. Depending on the expected half-life additional samples were taken at later time points (e.g. 48 h, 72 h).
For pharmacokinetics after intragastral administration test compounds were given intragastral to fasted non-rodents (e.g. dogs). Blood samples were taken e.g. at 5 min, 15 min, 30 min, 45 min, 1 h, 2 h, 4 h, 6 h, 8 h and 24 h after dosing. Depending on the expected half-life additional samples were taken at later time points (e.g. 48 h, 72 h). Blood was collected into Lithium-Heparin tubes (Monovetten®, Sarstedt) and centrifuged for 15 min at 3000 rpm. […] PK parameters were calculated by non-compartmental analysis using a PK calculation software. […]
PK parameters calculated from concentration time profiles after i.g.: Cmax: Maximal plasma concentration (in mg/L); Cmaxnorm: Cmax divided by the administered dose (in kg/L); Tmax: Time point at which Cmax was observed (in h). […]

human full length PDE3A = molecular target: T1, human full length PDE3A (Homo sapiens, UniProt Q14432); test: PDE3A enzyme inhibition, 3H-cAMP scintillation proximity assay; type: biochemical
T1 construct: Sf9 cells overexpressing human full length PDE3A; purchased SB Drug Discovery, UK; host or cells: Sf9 insect cells (cell extract, not purified)
T1 sequence (Q14432 whole entry): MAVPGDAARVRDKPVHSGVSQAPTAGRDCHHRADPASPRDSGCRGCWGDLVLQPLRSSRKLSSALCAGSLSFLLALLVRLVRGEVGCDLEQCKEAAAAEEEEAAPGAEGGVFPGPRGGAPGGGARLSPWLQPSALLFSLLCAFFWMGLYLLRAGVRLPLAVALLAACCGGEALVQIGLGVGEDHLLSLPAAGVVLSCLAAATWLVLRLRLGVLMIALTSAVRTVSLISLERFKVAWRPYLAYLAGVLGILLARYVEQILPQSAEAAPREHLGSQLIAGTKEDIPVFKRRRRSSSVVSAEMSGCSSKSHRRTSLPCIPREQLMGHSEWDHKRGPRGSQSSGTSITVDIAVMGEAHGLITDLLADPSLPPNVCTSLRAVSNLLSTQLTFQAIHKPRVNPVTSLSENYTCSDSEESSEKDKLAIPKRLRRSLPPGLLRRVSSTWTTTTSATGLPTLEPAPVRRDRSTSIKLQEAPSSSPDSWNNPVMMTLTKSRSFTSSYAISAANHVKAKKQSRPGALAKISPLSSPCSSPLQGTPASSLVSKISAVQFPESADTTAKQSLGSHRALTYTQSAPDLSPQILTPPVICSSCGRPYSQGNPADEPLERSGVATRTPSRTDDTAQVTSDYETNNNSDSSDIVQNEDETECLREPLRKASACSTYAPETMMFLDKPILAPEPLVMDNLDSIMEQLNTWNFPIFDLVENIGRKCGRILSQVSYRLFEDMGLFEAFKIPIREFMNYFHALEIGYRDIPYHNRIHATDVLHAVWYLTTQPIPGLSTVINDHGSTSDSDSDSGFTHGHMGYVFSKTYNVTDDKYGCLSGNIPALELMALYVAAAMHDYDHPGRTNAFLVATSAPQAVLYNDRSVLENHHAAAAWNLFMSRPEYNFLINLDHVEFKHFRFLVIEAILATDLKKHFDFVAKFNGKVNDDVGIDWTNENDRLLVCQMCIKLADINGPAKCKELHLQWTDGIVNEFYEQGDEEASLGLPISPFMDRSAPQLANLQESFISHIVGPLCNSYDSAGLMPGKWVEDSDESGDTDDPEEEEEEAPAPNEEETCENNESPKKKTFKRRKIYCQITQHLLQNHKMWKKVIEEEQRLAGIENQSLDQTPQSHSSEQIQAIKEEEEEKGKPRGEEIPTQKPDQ
Procedure: (§3) The commercially available ^3H-cAMP Scintillation Proximity Assay (SPA, Perkin Elmer) system was used for enzyme inhibition studies. For the determination of the in vitro effect of test substances on the PDE3A reactions 2 μl of the respective test compound solution in DMSO (serial dilutions) were placed in wells of microtiter plates (Isoplate-96/200W; Perkin Elmer). 50 μl of a dilution of PDE3A cell extract from Sf9 cells overexpressing human full length PDE3A (SB Drug Discovery, UK) in buffer A (50 mM Tris/HCl pH 7.5, 8.3 mM MgCl2, 1.7 mM EDTA, 0.2% BSA) was added. The dilution of the PDE3A cell extract was chosen such that the reaction kinetics was linear and less than 70% of the substrate was consumed (typical dilution 1:5000). The reaction was started by addition of 50 μl (0.025 μCi) of 1:2000 in buffer A w/o BSA diluted substrate [8-^3H] adenosine 3′, 5′-cyclic phosphate (1 μCi/μl; Perkin Elmer). After incubation at room temperature for 60 min, the reaction was stopped by addition of 25 μl of a suspension containing 18 mg/ml yttrium scintillation proximity beads (Perkin Elmer) in water. The microtiter plates were sealed and measured in a Microbeta scintillation counter (PerkinElmer Wallac). IC50 values were determined from sigmoidal curves by plotting percentage PDE3A activity vs log compound concentration.

HeLa cells = test: HeLa cell viability assay (compound sensitivity testing); type: cell-based; conditions: Homo sapiens, incubated for 48 hours
Procedure: 1000 HeLa (DMEM), cells were plated in a 384-well plate in 40 μl of corresponding growth media supplemented with 10% Fetal Bovine Serum. 24 hours after plating, indicated compounds were added at indicated concentrations and incubated for 48 hours. Cell viability was assessed as described in Compound library screening in NCI-H1734 and A549 cell lines.

A2058 xenograft = test: In vivo xenotransplantation model; set-up: species or system mice; conditions: A2058, Melanoma, 40 mg/kg 2QD p.o.
Procedure: as §2

HeLa xenograft = test: In vivo xenotransplantation model; set-up: species or system mice; conditions: Cervical cancer, 10 mg/kg 2QD p.o., study end
Procedure: as §2

SK-MEL3 xenograft = test: In vivo xenotransplantation model; set-up: species or system mice; conditions: SK-MEL3, Melanoma, 40 mg/kg 2QD p.o.
Procedure: as §2

IGR-37 xenograft = test: In vivo xenotransplantation model; set-up: species or system mice; conditions: IGR-37, Melanoma, 40 mg/kg 2QD p.o.
Procedure: as §2

human full length PDE3B = molecular target: T2, human full length PDE3B (Homo sapiens, UniProt Q13370); test: PDE3B enzyme inhibition, 3H-cAMP scintillation proximity assay; type: biochemical
T2 construct: Sf9 cells overexpressing human full length PDE3B; purchased SB Drug Discovery, UK; host or cells: Sf9 insect cells (cell extract, not purified)
T2 sequence (Q13370 whole entry): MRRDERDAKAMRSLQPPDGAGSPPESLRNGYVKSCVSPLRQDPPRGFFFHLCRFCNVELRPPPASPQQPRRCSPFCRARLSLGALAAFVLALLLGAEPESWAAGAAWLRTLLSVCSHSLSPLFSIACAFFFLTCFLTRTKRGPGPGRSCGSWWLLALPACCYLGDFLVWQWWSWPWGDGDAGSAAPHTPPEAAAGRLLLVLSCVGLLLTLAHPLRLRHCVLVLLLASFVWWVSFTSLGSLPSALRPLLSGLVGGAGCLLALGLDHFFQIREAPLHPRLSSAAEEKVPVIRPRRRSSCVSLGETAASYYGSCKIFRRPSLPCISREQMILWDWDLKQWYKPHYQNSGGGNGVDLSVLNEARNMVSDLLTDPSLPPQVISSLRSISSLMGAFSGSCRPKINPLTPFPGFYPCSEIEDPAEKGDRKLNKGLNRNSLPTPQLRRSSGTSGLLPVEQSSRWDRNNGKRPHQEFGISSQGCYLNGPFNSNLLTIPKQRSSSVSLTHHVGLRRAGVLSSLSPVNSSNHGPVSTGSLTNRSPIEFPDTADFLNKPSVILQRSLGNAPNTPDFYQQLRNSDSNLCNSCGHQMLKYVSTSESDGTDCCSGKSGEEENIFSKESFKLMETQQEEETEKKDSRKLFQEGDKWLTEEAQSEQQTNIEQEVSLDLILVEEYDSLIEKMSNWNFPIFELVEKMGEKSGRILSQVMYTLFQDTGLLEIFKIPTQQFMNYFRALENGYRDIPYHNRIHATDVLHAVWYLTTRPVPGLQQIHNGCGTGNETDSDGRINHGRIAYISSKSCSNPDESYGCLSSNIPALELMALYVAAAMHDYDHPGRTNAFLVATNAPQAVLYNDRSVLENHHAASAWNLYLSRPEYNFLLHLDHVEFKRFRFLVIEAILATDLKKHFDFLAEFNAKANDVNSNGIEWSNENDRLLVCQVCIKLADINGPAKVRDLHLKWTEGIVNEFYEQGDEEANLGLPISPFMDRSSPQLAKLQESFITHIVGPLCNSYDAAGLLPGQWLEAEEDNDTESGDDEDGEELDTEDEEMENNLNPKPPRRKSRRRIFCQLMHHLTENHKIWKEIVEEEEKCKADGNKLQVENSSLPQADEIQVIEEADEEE
Procedure: as §3, with “PDE3B” for “PDE3A”, “1:6000).” for “1:5000).”

## C[C@@H]1CC(=O)NN=C1c1cc(F)c(N2CCOCC2)c(F)c1 [Compound 1, (5R)-6-[3,5-difluoro-4-(morpholin-4-yl)phenyl]-5-methyl-4,5-dihydropyridazin-3(2H)-one]
HeLa
  IC50: 0.852 nM
IGR37
  IC50: 2.19 nM
SKMEL3
  IC50: 1.01 nM
A549
  IC50: > 600 nM
PDE3A-CRISPR A2058 cells; ectopic expression of GFP
  response to cytotoxic effects: lack of response
PDE3A-CRISPR A2058 cells; ectopic expression of PDE3B
  response to cytotoxic effects: re-sensitized
PDE3A-CRISPR A2058 cells; ectopic expression of PDE3B, listed as compound 1
  response to cytotoxic effects: restores sensitivity
[1]
  predicted maximal oral bioavailability (Fmax): 66%
[2]
  anti-tumor efficacy: potent anti-tumor efficacy
[3]
  clearance: 12.8 mL/min/kg
Human full length PDE3A
  IC50: 5 nM and 4.6 nM
HeLa cells
  EC50: 1.1 nM
A2058 xenograft
  T/C (mean final tumor weight of treatment versus control): 0.07b)*
HeLa xenograft
  T/C (mean tumor area of treatment versus control): 0.01a)*
SK-MEL3 xenograft
  T/C (mean final tumor weight of treatment versus control): 0.05b)*
IGR-37 xenograft
  T/C (mean final tumor weight of treatment versus control): 0.11b)*

## C[C@@H]1CC(=O)NN=C1c1ccc(N2CCOCC2)c(F)c1 [(5R)-6-[3-fluoro-4-(morpholin-4-yl)phenyl]-5-methyl-4,5-dihydropyridazin-3(2H)-one, reference compound]
[1]
  predicted maximal oral bioavailability (Fmax): 49%
[3]
  clearance: 28.3 mL/min/kg

## C[C@@H]1CC(=O)NN=C1c1cc(Cl)c(N2CCOCC2)c(Cl)c1 [Compound 2, 6-[3,5-dichloro-4-(morpholin-4-yl)phenyl]-5-methyl-4,5-dihydropyridazin-3(2H)-one]
Human full length PDE3A
  IC50: 4 nM
HeLa cells
  EC50: 1.9 nM
Human full length PDE3B
  IC50: 11 nM
